Calls of active or inactive are those of the source. The calls are words filed in the database; no cut-off is given here.
Columns and labels:
Rattus norvegicus [1] = species on record: Rattus norvegicus; assay: Vasodilating activity in rat gracilis muscle arteriole assessed as change in internal diameter; format: functional
Mus musculus = assay: Reversal of androgen-driven 20-HETE-induced hypertension in Cyp4a14(-/-) mouse assessed as reduction in systolic blood pressure at 10 mg/kg, ip daily and measured for 10 days; format: functional, organism-based
Rattus norvegicus [2] = species on record: Rattus norvegicus; assay: Vasodilating activity in rat gracilis muscle arteriole assessed as inhibition of 20-HETE induced change in internal diameter; format: functional
[3] = Vasodilating activity in rat renal preglomerular microvessels assessed as effect on 20-HETE induced sensitization toward phenylephrine at 1 uM relative to 20-HETE; format: functional
[4] = Solubility of compound in water; format: physicochemical

Compound	fold change (FC) [3]	also measured
C[C@@H](O)CCC/C=C\CCCCCCC/C=C\CCCC(=O)N[C@@H](CC(=O)O)C(=O)O	–	Activity (Rattus norvegicus [1]): inactive; Activity (Mus musculus): Active; Activity (Rattus norvegicus [2]): Dose-dependent effect
C[C@@H](O)CCC/C=C\CCCCCCC/C=C\CCCC(=O)NCC(=O)[O-].[Na+]	-4.47	solubility [4]: 500 µg/mL
CC(O)CCC/C=C\CCCCCCC/C=C\CCCc1nnn[nH]1 (centres undefined)	-0.78	–
C[C@H](O)CCC/C=C\CCCCCCC/C=C\CCCC(=O)N[C@@H](CC(=O)[O-])C(=O)[O-].[Na+].[Na+]	-0.59	–
O=C([O-])CCC/C=C\CCCCCCC/C=C\CCCCO.[Na+]	-0.68	–
C[C@@H](O)CCC/C=C\CCCCCCC/C=C\CCCC(=O)[O-].[Na+]	-0.85	solubility [4]: 250 µg/mL
[N-]=[N+]=N[C@H](CO)CCC/C=C\CCCCCCC/C=C\CCCC(=O)[O-].[Na+]	0.16	–
C[C@H](O)CCC/C=C\CCCCCCC/C=C\CCCC(=O)[O-].[Na+]	-0.68	solubility [4]: 250 µg/mL
CC(O)CCCC/C=C\CCCCCCC/C=C\CCCC(=O)NCC(=O)[O-].[Na+] (centres undefined)	0.58	–
O=C([O-])CNC(=O)CCC/C=C\CCCCCCC/C=C\CCCCO.[Na+]	-0.74	–
CC(O)CCCCCCCCCCCC/C=C\CCCC(=O)[O-].[Na+] (centres undefined)	-0.66	–
C[C@H](O)CCC/C=C\CCCCCCC/C=C\CCCC(=O)NCC(=O)[O-].[Na+]	–	solubility [4]: 500 µg/mL
[N-]=[N+]=N[C@@H](CO)CCC/C=C\CCCCCCC/C=C\CCCC(=O)[O-].[Na+]	0.5	–
CC(O)CCC/C=C\CCCCCCCCCCCCC(=O)[O-].[Na+] (centres undefined)	-0.79	–

Reference: ChEMBL document CHEMBL4396942, “19-Hydroxyeicosatetraenoic acid analogs: Antagonism of 20-hydroxyeicosatetraenoic acid-induced vascular sensitization and hypertension” (Bioorg Med Chem Lett, 2019)
